This is an account of results in PubChem BioAssay (NCI).

Among the test systems are A549 NSCLC; HS 578T breast; LOX IMVI melanoma; MALME-3M melanoma; NCI-H522 lung; NCI/ADR-RES ovarian; SK-MEL-28 melanoma; SK-MEL-5 melanoma; SR leukemia; SN12C renal.
Holding throughout (experiment): inhibition of tumour cell growth, NCI panel, 48 h

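Following 48 hours of exposure in 96-well plates, responses at five concentrations were used to interpolate endpoints linearly. Abbreviation: GI50, concentration required for 50% inhibition of growth. At the TGI there is no net growth.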

On to `Cc1cccc2c1NC(=O)[C@@]21[C@H](C(=O)c2ccccc2)[C@]2(C(=O)Nc3ccccc32)[C@H]2CCCN21`, for which the GI50 is 58.9 µM in the assay on A549 NSCLC; 19.5 µM in the assay with HS 578T breast; 34.5 µM in the assay with LOX IMVI melanoma; 31.4 µM with MALME-3M melanoma; 29.2 µM in the assay on NCI-H522 lung; 20.4 µM in the assay with NCI/ADR-RES ovarian. Also, the GI50 is 34.3 µM with SK-MEL-28 melanoma, 84.7 µM in the assay on SK-MEL-5 melanoma and 15.4 µM in the assay with SR leukemia. Further, the TGI was greater than 100 µM in the assay with A549 NSCLC; greater than 100 µM in the assay on HS 578T breast; greater than 100 µM with LOX IMVI melanoma; greater than 100 µM in the assay with MALME-3M melanoma; greater than 100 µM with NCI-H522 lung; 71.5 µM in the assay on NCI/ADR-RES ovarian. In addition, the TGI in the assay with SK-MEL-28 melanoma, with SK-MEL-5 melanoma and in the assay on SR leukemia was greater than 100 µM throughout.
For the molecule `COC1CC2C=CC3C4OC2(/C(C)=C/C(C)C(C(C)O)OC1=O)C3C(O)C(C)C4OC(=O)c1ccc[nH]1` (stereo unspecified), the TGI with A549 NSCLC, in the assay on HS 578T breast, in the assay on LOX IMVI melanoma, in the assay on NCI-H522 lung, in the assay on NCI/ADR-RES ovarian and in the assay with SK-MEL-28 melanoma was greater than 100 µM throughout. Besides, the TGI is greater than 100 µM in the assay with SK-MEL-5 melanoma, greater than 100 µM in the assay with SN12C renal and 77 µM in the assay with SR leukemia.
As to `N=C1C(c2nc3ccccc3s2)=C(O)CN1c1ccc(Cl)cc1Cl`, the GI50 is 11.6 µM in the assay on A549 NSCLC; 25.5 µM in the assay on HS 578T breast; 14.8 µM in the assay with LOX IMVI melanoma; 11.2 µM with NCI-H522 lung; 13.5 µM in the assay with NCI/ADR-RES ovarian; 21 µM in the assay with SK-MEL-28 melanoma. Also, the GI50 with SK-MEL-5 melanoma is 19.2 µM; in the assay on SN12C renal it was 13.5 µM; in the assay with SR leukemia, 1.49 µM. The TGI in the assay on A549 NSCLC is 35.6 µM; with HS 578T breast, 75.9 µM; with LOX IMVI melanoma, 41.2 µM; in the assay on NCI-H522 lung it was 35.2 µM; with NCI/ADR-RES ovarian, 37.4 µM; in the assay with SK-MEL-28 melanoma, greater than 100 µM. Also, the TGI is greater than 100 µM in the assay on SK-MEL-5 melanoma, 32.4 µM in the assay on SN12C renal and 34.6 µM in the assay on SR leukemia.
For `Cc1ccc(C(=O)CCC2C(=O)CC(C)(C)CC2=O)cc1`, the TGI with A549 NSCLC was greater than 100 µM; in the assay on HS 578T breast it was greater than 100 µM; in the assay with LOX IMVI melanoma, greater than 100 µM; in the assay with NCI-H522 lung it was 34.4 µM; with NCI/ADR-RES ovarian, greater than 100 µM; in the assay on SK-MEL-28 melanoma, greater than 100 µM. In addition, the TGI in the assay on SK-MEL-5 melanoma is greater than 100 µM; in the assay on SN12C renal, greater than 100 µM; in the assay with SR leukemia it was 65.5 µM.
As for `NCC1OC(n2cnc3c(=O)[nH]c(N)nc32)C(O)C1O` (stereo unspecified), the TGI in the assay with A549 NSCLC, in the assay on HS 578T breast, in the assay with LOX IMVI melanoma, in the assay on MALME-3M melanoma, with NCI-H522 lung and in the assay on NCI/ADR-RES ovarian was greater than 100 µM in each case. The TGI in the assay with SK-MEL-28 melanoma, with SK-MEL-5 melanoma and with SN12C renal was greater than 100 µM throughout.
On to `COc1ccc(C(=O)C(Br)C(Br)C(=O)O)cc1` (stereo unspecified), for which the TGI in the assay with A549 NSCLC was greater than 100 µM; in the assay with HS 578T breast, greater than 100 µM; with LOX IMVI melanoma, 54 µM; in the assay on MALME-3M melanoma it was 46.2 µM; in the assay on NCI-H522 lung, 34.9 µM; in the assay with NCI/ADR-RES ovarian, greater than 100 µM. The TGI with SK-MEL-28 melanoma, with SK-MEL-5 melanoma and in the assay with SN12C renal was greater than 100 µM throughout.
Turning to `O=S(=O)(NCCCNc1cc(-c2cn(-c3ccccc3)nc2-c2cccc(O)c2)ccn1)c1cccc2ccccc12`, the GI50 with A549 NSCLC was 3.5 µM; in the assay on HS 578T breast it was 1.42 µM; with LOX IMVI melanoma, 1.56 µM; in the assay with NCI-H522 lung, 2.32 µM; in the assay with NCI/ADR-RES ovarian, 3.72 µM; in the assay with SK-MEL-28 melanoma, 2.37 µM. Besides, the GI50 in the assay on SK-MEL-5 melanoma was 1.57 µM; with SN12C renal, 4.8 µM; in the assay on SR leukemia, 1.84 µM. The TGI is greater than 100 µM in the assay on A549 NSCLC; 8.39 µM in the assay on HS 578T breast; 3.29 µM in the assay on LOX IMVI melanoma; 5.66 µM in the assay with NCI-H522 lung; greater than 100 µM in the assay on NCI/ADR-RES ovarian; 7.33 µM in the assay with SK-MEL-28 melanoma. Besides, the TGI in the assay on SK-MEL-5 melanoma is 3.41 µM; with SN12C renal, greater than 100 µM; in the assay on SR leukemia, 7.33 µM.
In the case of `CN(C)Cc1cccc(CN(C)C)[c]1[Sn]([Br])([c]1ccccc1)[c]1ccccc1`, the GI50 in the assay with A549 NSCLC was 17 µM; with HS 578T breast, 19.8 µM; in the assay on LOX IMVI melanoma it was 6.25 µM; in the assay on MALME-3M melanoma it was 12.6 µM; in the assay with NCI/ADR-RES ovarian it was 44 µM; in the assay on SK-MEL-28 melanoma, 14.5 µM. In addition, the results for the GI50 with SK-MEL-5 melanoma, in the assay with SN12C renal and in the assay with SR leukemia were 11 µM, 16.7 µM and 2.36 µM, respectively. In addition, the TGI in the assay on A549 NSCLC was 60.1 µM; in the assay on HS 578T breast, 47 µM; in the assay with LOX IMVI melanoma, 20.3 µM; in the assay with MALME-3M melanoma it was 27.4 µM; with NCI/ADR-RES ovarian it was greater than 100 µM; with SK-MEL-28 melanoma, 35.2 µM. The TGI is 24.7 µM in the assay with SK-MEL-5 melanoma, 35.6 µM in the assay on SN12C renal and 12 µM in the assay on SR leukemia.
For the molecule `COc1ccc(-c2csc(NC(=O)N3CCN(c4cc5c(cc4F)c(=O)c(C(=O)O)cn5C4CC4)CC3)n2)cc1`, the GI50 in the assay on A549 NSCLC was 3.43 µM; in the assay with HS 578T breast it was 2.94 µM; in the assay with NCI/ADR-RES ovarian, 5.87 µM; in the assay on SN12C renal it was 1.49 µM; in the assay with SR leukemia, 1.93 µM. Moreover, the TGI in the assay with A549 NSCLC is greater than 100 µM; with HS 578T breast, greater than 100 µM; with NCI/ADR-RES ovarian, greater than 100 µM; in the assay with SN12C renal it was greater than 100 µM; in the assay with SR leukemia it was 13 µM.
`CCn1cc(C(=O)N/N=C/c2cccc(F)c2)c(=O)c2cc(F)c(N3CCNC(C)C3)c(F)c21` (stereo unspecified): the GI50 in the assay with A549 NSCLC was 1.74 µM; in the assay on HS 578T breast it was 4.4 µM; with LOX IMVI melanoma, 1.71 µM; in the assay with MALME-3M melanoma, 1.72 µM; in the assay on NCI-H522 lung it was 1.76 µM; in the assay on NCI/ADR-RES ovarian, 1.81 µM. The GI50 in the assay with SK-MEL-5 melanoma is 1.75 µM; in the assay on SN12C renal it was 1.62 µM; in the assay with SR leukemia it was 1.33 µM. Further, the TGI in the assay with A549 NSCLC was 3.29 µM; in the assay with HS 578T breast, 25.5 µM; in the assay on LOX IMVI melanoma, 3.21 µM; in the assay with MALME-3M melanoma, 3.23 µM; with NCI-H522 lung, 3.32 µM; in the assay on NCI/ADR-RES ovarian, 3.41 µM. Moreover, the TGI in the assay on SK-MEL-5 melanoma was found to be 3.19 µM; with SN12C renal it was 3.11 µM; in the assay on SR leukemia, 3.14 µM.
